Results from ChEMBL document CHEMBL2413030, “Multimerized CHR-derived peptides as HIV-1 fusion inhibitors” (Bioorg Med Chem, 2013).
Square brackets hold non-standard residues; d marks the D form. Nle = CCCC[C@H](N)C(=O)O

How the values were obtained:
[1] = Cytotoxicity against human TZM-bl cells by MTS assay; format: cell-based
[2] = test system: Human immunodeficiency virus 1; assay: Antiviral activity against HIV1 NL4-3 assessed as inhibition of viral fusion with human TZM-bl cells after 48 hrs by steady glo luciferase reporter gene assay; format: functional, organism-based; settings: Human immunodeficiency virus 1, NL4-3, TZM-bl

Row | Substance | CC50 [1] [nM] | IC50 [2] [nM]
1 | enfuvirtide | > 5000 | 45.2
2 | H-W[Nle]EWDRKIEEYTKKIEELIKKSQEQQEKNEKELKREREREG-OH | > 5000 | 1.82
